molecular target: T1, Axl (Homo sapiens, UniProt P30530); test: Phospho-Akt in-cell Western assay (inhibition of Axl activity, Axl-antibody cross-linking stimulation); format: cell-based; details: Hela cells, phospho-Akt readout; compounds of formula (Ia), Table 1
T1 construct: endogenous in cells; host or cells: HeLa cells
T1 sequence (P30530 26-894): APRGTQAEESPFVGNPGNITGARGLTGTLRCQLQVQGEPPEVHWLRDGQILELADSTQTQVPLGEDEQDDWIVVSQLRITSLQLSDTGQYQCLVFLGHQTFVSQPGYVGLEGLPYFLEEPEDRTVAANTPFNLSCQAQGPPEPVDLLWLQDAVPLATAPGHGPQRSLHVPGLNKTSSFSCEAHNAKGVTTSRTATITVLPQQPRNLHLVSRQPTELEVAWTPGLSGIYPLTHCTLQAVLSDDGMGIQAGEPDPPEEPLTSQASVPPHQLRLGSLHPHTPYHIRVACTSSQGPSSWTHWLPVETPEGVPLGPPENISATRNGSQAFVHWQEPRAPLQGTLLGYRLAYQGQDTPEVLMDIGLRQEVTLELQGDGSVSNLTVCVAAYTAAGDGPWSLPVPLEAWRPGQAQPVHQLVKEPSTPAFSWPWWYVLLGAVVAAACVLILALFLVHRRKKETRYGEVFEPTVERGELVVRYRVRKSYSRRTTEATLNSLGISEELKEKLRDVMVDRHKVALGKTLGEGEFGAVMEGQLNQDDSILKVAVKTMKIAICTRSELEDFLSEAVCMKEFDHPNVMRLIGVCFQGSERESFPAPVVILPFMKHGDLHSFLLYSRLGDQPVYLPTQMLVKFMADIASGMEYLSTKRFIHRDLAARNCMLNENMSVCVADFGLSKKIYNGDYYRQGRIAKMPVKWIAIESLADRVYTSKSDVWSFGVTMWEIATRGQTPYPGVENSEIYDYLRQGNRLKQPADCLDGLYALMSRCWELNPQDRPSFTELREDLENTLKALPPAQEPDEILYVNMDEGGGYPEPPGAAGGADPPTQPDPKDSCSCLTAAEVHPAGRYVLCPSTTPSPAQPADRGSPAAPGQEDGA
Procedure: The compounds of the invention were tested in the following assay for their ability to inhibit Axl activity.
Phospho-Akt in-Cell Western Assay
• Cell culture plate: 96 well assay plate (Corning 3610), white, clear bottom, tissue-culture treated. • Cells: Hela cells. • Starvation medium: For Axl stimulation: 0.5% FCS (fetal calf serum) in DMEM, plus Axl/Fc (extracellular domain of AXL fused to immunoglobulin Fc region) (R&D, 154-AL) 500 ng/mL. • For EGF (epidermal growth factor) stimulation: 0.5% FCS in DMEM (Dulbecco's modified Eagles medium). • Poly-L-Lysine 0.01% solution (the working solution): 10 μg/ml, dilute In PBS (phosphate buffered saline). • Axl antibody cross-linking: • 1st: Mouse anti-Axl (R&D, MAB154). • 2nd: Biotin-SP-conjugated AffiniPure goat anti-mouse IgG (H+L) (Jackson ImmunoResearch #115-065-003). • Fixing buffer: 4% formaldehyde in PBS. • Wash buffer: 0.1% TritonX-100 in PBS. • Quenching buffer: 3% H2O2, 0.1% Azide in wash buffer, Azide and hydrogen peroxide (H2O2) are added fresh. • Blocking buffer: 5% BSA in TBST (tris buffered saline plus 0.1% Tween 20). • Primary antibody: Rabbit anti-human Phospho-Akt antibody (Cell Signaling 9271): 1×250 diluted in blocking buffer. • Secondary antibody: HRP (horse radish peroxidase)-conjugated Goat anti-Rabbit secondary, stock solution: Jackson ImmunoResearch (Goat anti-Rabbit HRP, #111-035-144) 1:1 diluted in glycerol, store at −20° C. The working solution: 1×2000 dilution of stock in blocking buffer. • Chemiluminescent working solution (Pierce, 37030): SuperSignal ELISA (enzyme linked immunosorbant assay) Pico Chemiluminescent substrate. • Crystal Violet solution: Stock: 2.5% Crystal violet in methanol, filtered and kept at ambient temperature. The working solution: dilute the stock 1:20 with PBS immediately before use.
10% SDS: working solution: 5% SDS (sodium dodecylsulfate), diluted in PBS
A 96 well TC (tissue culture treated) plate was coated with 10 μg/mL poly-L-Lysine at 37° C. for 30 min, washed twice with PBS, and air-dried for 5 minutes before cells were added. Hela cells were seeded at 10,000 cells/well and the cells were starved in 100 μL starvation medium containing Axl/Fc for 24 hrs.
The cells were pre-treated with test compounds by adding 100 μL of 2× test compound to the starvation medium on the cells. The cells were incubated at 37° C. for 1 hr before stimulation.
The cells were stimulated by Axl-antibody cross-linking as follows: A 5×1st/2nd Axl antibody mixture was made (37.5 μg/mL 1st/100 μg/mL 2 nd) in starvation medium and nutated at 4° C. with thorough mixing for 1-2 hours for clustering. The resulting mix was warmed to 37° C. 50 μL of 5×Axl 1st/2nd of antibody cluster was added to the cells and the cells were incubated at 37° C. for 5 min.
After 5 minutes stimulation, the plate was flicked to remove medium and the plate was tapped onto paper towels. Formaldehyde (4.0% in PBS, 100 μL) was added to fix the cells and the cells were incubated at ambient temperature for 20 min without shaking.
The cells were washed with a plate washer buffer to remove the formaldehyde solution. The plate was flicked to removed excess wash buffer and tapped onto paper towels. Quenching buffer (100 μL) was added to each well and the cells were incubated at ambient temperature for 20 minutes without shaking.
The cells were washed with a plate washer buffer to remove the quenching buffer. Blocking buffer (100 μL) was added and the cells were incubated at ambient temperature for at least an hour with gentle shaking.
The cells were washed with a plate washer buffer and diluted primary antibody (50 μL) was added to each well (blocking buffer was added to the negative control wells instead). The plates were incubated overnight at 4° C. with gentle shaking.
The wash buffer was removed, diluted secondary antibody (100 μL) was added, and the cells were incubated at ambient temperature for 1 hour with gentle shaking. […]

`COc1cc2ncnc(-n3nc(Nc4ccc(N5CCC(N6CCN(C)CC6)CC5)nc4)nc3N)c2cc1OC` [compound 8, 1-(6,7-dimethoxy-quinazoline-4-yl)-N^3-(6-(4-(4-methyl-piperazin-1-yl)piperidin-1-yl)pyridin-3-yl)-1H-1,2,4-triazole-3,5-diamine] and `COc1cc2ncnc(-n3nc(Nc4ccc(C=CCN5CCC(N6CCN(C)CC6)CC5)nc4)nc3N)c2cc1OC` [compound 65, 1-(6,7-dimethoxy-quinazoline-4-yl)-N^3-(6-(3-(4-(4-methyl-piperazin-1-yl)piperidin-1-yl)propenyl)pyridin-3-yl)-1H-1,2,4-triazole-3,5-diamine] cannot be ordered by IC50: under 1000 nM for the first, under 1000 nM for the second.

`Cc1csc2c(-n3nc(Nc4cnc5c(c4)CC4(CC5)OCCO4)nc3N)nc(Cl)nc12` [compound 60, 1-(2-chloro-7-methylthieno [3,2-d]pyrimidin-4-yl)-N^3-(7′,8′-dihydro-5′H-spiro[[1,3]dioxolane-2,6′-quinoline]-3′-yl)-1H-1,2,4-triazole-3,5-diamine] and `Cc1csc2c(-n3nc(Nc4cnc5c(c4)CN(C4CC6CCC4C6)CC5)nc3N)nc(Cl)nc12` (centres unmarked) [compound 102, 1-(2-chloro-7-methylthieno [3,2-d]pyrimidin-4-yl)-N^3-(6-bicyclo[2.2.1]heptan-2-yl-5,6,7,8-tetrahydro-1,6-naphthyridin-3-yl)-1H-1,2,4-triazole-3,5-diamine] cannot be ordered by IC50: under 1000 nM for the first, under 1000 nM for the second.

Compared with `Cc1csc2c(-n3nc(Nc4cnc5c(c4)CN(C(=O)C4CCNCC4)CC5)nc3N)nc(Cl)nc12` [compound 87, 1-(2-chloro-7-methylthieno [3,2-d]pyrimidin-4-yl)-N^3-(6-(piperidin-4-ylcarbonyl)-5,6,7,8-tetrahydro-1,6-naphthyridin-3-yl)-1H-1,2,4-triazole-3,5-diamine], `Cc1csc2c(-n3nc(Nc4cnc5c(c4)CN(C(=O)C4CCN(C)CC4)CC5)nc3N)nc(Cl)nc12` [compound 61, 1-(2-chloro-7-methylthieno [3,2-d]pyrimidin-4-yl)-N^3-(6-(1-methyl-piperidin-4-ylcarbonyl)-5,6,7,8-tetrahydro-1,6-naphthyridin-3-yl)-1H-1,2,4-triazole-3,5-diamine] is lower in IC50: over 20000 nM for the first, under 1000 nM for the second.

`Cc1csc2c(-n3nc(Nc4ccc(C=CCN5CCC(N6CCCC6)CC5)nc4)nc3N)ncnc12` [compound 122, 1-(7-methylthieno [3,2-d]pyrimidin-4-yl)-N^3-(2-(3-(4-pyrrolidin-1-yl-piperidin-1-yl)propen-1-yl)pyridin-5-yl)-1H-1,2,4-triazole-3,5-diamine] and `Cc1csc2c(-n3nc(Nc4ccc(N5CCCN(C6CCCC6)CC5)nc4)nc3N)nc(Cl)nc12` [compound 10, 1-(2-chloro-7-methylthieno [3,2-d]pyrimidine-4-yl)-N^3-(6-(4-cyclopentyl-1,4-diazepan-1-yl)pyridin-3-yl)-1H-1,2,4-triazole-3,5-diamine] cannot be ordered by IC50: under 1000 nM for the first, under 1000 nM for the second.

`Cc1nc(-n2nc(Nc3cnc(N4CCC(N5CCCC5)CC4)c(C)c3)nc2N)c2ccccc2n1` [compound 55, 1-(2-methyl-quinazolin-4-yl)-N^3-(6-(4-(pyrrolidin-1-yl)piperidin-1-yl)-5-methylpyridin-3-yl)-1H-1,2,4-triazole-3,5-diamine] and `COc1cc2ncnc(-n3nc(Nc4cnc(N5CCC(N6CCCC6)CC5)c(C)c4)nc3N)c2cc1OC` [compound 42, 1-(6,7-dimethoxy-quinazoline-4-yl)-N^3-(6-(4-(pyrrolidin-1-yl)piperidin-1-yl)-5-methylpyridin-3-yl)-1H-1,2,4-triazole-3,5-diamine] cannot be ordered by IC50: under 1000 nM for the first, under 1000 nM for the second.

First: COc1cc2ncnc(-n3nc(Nc4cnc(N5CCC(CN6CCCCC6)CC5)nc4)nc3N)c2cc1OC [compound 63, 1-(6,7-dimethoxy-quinazoline-4-yl)-N^3-(2-(4-piperidin-1-ylmethyl-piperidin-1-yl)pyrimidin-5-yl)-1H-1,2,4-triazole-3,5-diamine]
Second: Cc1cc(Nc2nc(N)n(-c3ncnc4c(C)csc34)n2)cnc1N1CCN(C2CC3CCC2C3)CC1 (centres unmarked) [compound 72, 1-(7-methylthieno [3,2-d]pyrimidine-4-yl)-N^3-(5-methyl-6-(4-bicyclo [2.2.1]heptan-2-ylpiperazin-1-yl)pyridine-3-yl)-1H-1,2,4-triazole-3,5-diamine]
The IC50 of the first is higher: 1000 to 10000 nM for the first, under 1000 nM for the second.

`Cc1csc2c(-n3nc(Nc4ccc(N5CCCN(C6CC7CCC6C7)CC5)nc4)nc3N)nc(Cl)nc12` (centres unmarked) [compound 46, 1-(2-chloro-7-methylthieno [3,2-d]pyrimidin-4-yl)-N^3-(6-(4-(bicyclo[2.2.1]heptan-2-yl)-1,4-diazepan-1-yl)pyridin-3-yl)-1H-1,2,4-triazole-3,5-diamine] and `Cc1cc(Nc2nc(N)n(-c3nc(Cl)nc4c(C)csc34)n2)cnc1N1CCN(C2CC3CCC2C3)CC1` (centres unmarked) [compound 71, 1-(2-chloro-7-methylthienò [3,2-d]pyrimidine-4-yl)-N^3-(5-methyl-6-(4-bicyclo[2.2.1]heptan-2-ylpiperazin-1-yl)pyridine-3-yl)-1H-1,2,4-triazole-3,5-diamine] cannot be ordered by IC50: under 1000 nM for the first, under 1000 nM for the second.

Compared with `Cc1cc(Nc2nc(N)n(-c3ncnc4ccsc34)n2)cnc1N1CCN([C@H]2CC3CCC2C3)[C@@H](C)C1` (stereo partly drawn) [compound 108, 1-(thieno [3,2-d]pyrimidin-4-yl)-N^3-(2-(3-(S)-methyl-4-(2S)-bicyclo[2.2.1]heptan-2-ylpiperazin-1-yl)-3-methylpyridin-5-yl)-1H-1,2,4-triazole-3,5-diamine], `Cc1csc2c(-n3nc(Nc4ccc(N5CCN(CC6CC6)[C@@H](C)C5)nc4)nc3N)nc(Cl)nc12` [compound 115, 1-(2-chloro-7-methyithieno [3,2-d]pyrimidin-4-yl)-N^3-(2-(4-cyclopropyl-methyl-3-(S)-methyl-piperazin-1-yl)pyridin-5-yl)-1H-1,2,4-triazole-3,5-diamine] is higher in IC50: under 1000 nM for the first, 1000 to 10000 nM for the second.

Compound `Nc1nc(Nc2ccc3c(c2)OCCO3)nn1-c1nccc2ccccc12` [compound 4, N^3-(2,3-dihydrobenzo [b][1,4]dioxin-6-yl)-1-(isoquinolin-1-yl)-1H-1,2,4-triazole-3,5-diamine] has an IC50 of 1000 to 10000 nM.

From patent US8796259B2, “N3-heteroaryl substituted triazoles and N5-heteroaryl substituted triazoles useful as axl inhibitors” (Rigel Pharmaceuticals, Inc., priority 2006, dated 2014)
